Tests used:
[1] = test system: serum calcium concentration; details: standard used in the rat serum calcium assay; cited from earlier work
[2] = test system: serum calcium concentration; experiment: Biological assay of calcitonin analogs in vivo: reduction of serum calcium concentration, 2×2 parallel line assay; details: rats, subcutaneous injection, blood withdrawn 1 hour later
Description: Biological Assay Of Calcitonin Analogs In Vivo
The biological potency of [Di-Ala^1,7 ]salmon calcitonin was determined by comparing the reduction of serum calcium concentration which followed administration by graded doses of [Di-Ala^1,7 ]SCT and synthetic salmon calcitonin standard. Rats were divided into four groups of seven animals, and each group was assigned at random to a dose of standard or test solution. Low and high doses were chosen from the linear portion of the dose-responsive curve. For the salmon calcitonin standard, the values were 0.7 and 2.1 mcg. peptide/100 g. body weight (BW). This dose approximates 3 and 9 MU/100 g. BW. Peptides were given by subcutaneous injection (0.2 ml/100 g. BW) and blood was withdrawn 1 hour later for serum calcium determination. Sera are processed and analyzed within two hours of collection. […]. Results were analyzed by a 2×2 parallel line assay [Gaddum, J. H., J. Pharm. Pharmacol., 6, 345 (1953)]. The standard salmon calcitonin used was independently determined to contain greater than 4,000 IU/mg. [Di-Ala^1,7 ]SCT assayed at 5550 IU/mg.

Substance | potency of the standard salmon calcitonin, independently determined [1] | biological potency (reduction of serum calcium concentration vs synthetic salmon calcitonin standard) [2] [IU/mg]
Salmon calcitonin [standard salmon calcitonin] | greater than 4,000 IU/mg | 
[1,7-Di-Alanine)]salmon calcitonin [[Di-Ala^1,7]SCT] |  | 5550
